Tests used:
B16-F10.9 melanoma [1] = assay: LEFCT-EC in mice bearing subcutaneous B16-F10.9 melanoma; format: in vivo, C57BL/6 mice; details: for Tumor size (mean ± standard error): 7 days after treatment
Experimental: Animals: C57BL/6 male mice were obtained from the breeding colony of Tel-Aviv University, Israel. Mice were used at 8-12 weeks of age. Animal care and experimentation was carried out in accordance with Tel-Aviv University guidelines.
Melanoma tumor cell line: The highly metastatic, poorly immunogenic B16-F10.9 (F10.9) subclone of the B16 melanoma cell line was used to generate melanoma tumors in mice (Eisenbach L. et al., 1984. Int J Cancer 34:567). Cells were maintained in DMEM supplemented with 100 U/ml penicillin, 100 μg/ml streptomycin, 4 mM glutamine, 1 mM sodium pyruvate, 1% non-essential amino acids and 10% heat-inactivated fetal calf serum (FCS); and were cultured at 37° C. in a humidified incubator in an atmosphere of 7% carbon dioxide and 93% air.
Tumor generation protocol: F10.9 tumors were induced in C57BL/6 mice by subcutaneous injection of 2×10^5 F10.9 cells. Mice were subjected to experimental treatments once tumors reached 5 mm in diameter (about 60-70 mm^3). Chemotherapeutic drugs: The following chemotherapeutic drugs used were: cis-platinum (II) diamminedichloride (cisplatin; #P-4394, Sigma, Israel), dissolved in PBS for injections; Taxol (Mead Johnson Oncology Products, A Bristol-Myers Squibb, USA), obtained as a sterile nonpyrogenic solution containing 6 mg/ml paclitaxel, 527 mg/ml of purified Cremophor EL (polyoxyethylated castor oil) and 5-FU (Abic, Israel).
Low-strength electric field enhanced cancer therapy protocol: Mice were subjected to a single treatment of LEFCT-EC, once tumors reached 5 mm in diameter (11-17 days following tumor cell inoculation). Volumes of up to 100 μl of chemotherapeutic agents were injected into tumor loci, and exposures to electric fields were carried out 3-4 min following intratumoral injection of chemotherapeutic agents. To expose tumors to electric fields, stainless steel electrode needles (Karlsbader insect pins No 0. BioQuip Products, USA) soldered at their brassy ends with thin isolated copper wires were used. Electrodes were inserted to a depth of about 7 mm percutaneously into and in the immediate vicinity of the tumor; one cathode needle in the center of the tumor and three peripheral anodes, at a distance of about 5 mm from the cathode. The needles were connected to an electric pulse generator (Grass S48 Stimulator, USA). The field strength applied was about 40 V/cm; the repetition frequency, 500 Hz; and the pulse width, 180 μs. All mice were anesthetized prior to LEF treatment.
Statistical analysis: Statistical analysis of survival times (Kaplan-Meir test), survival comparisons between groups (Mantel-Cox test) and tumor volume differences between groups (Kolmogorov-Smirnov test) were performed using StatSoft Statistica statistical software. The 10-15% mortality rate in the 5 days following LEF or LEF-chemotherapy was considered as treatment-caused, therefore such cases of mortality were excluded.
Tumor volume determination: performed as described above in Example 1 of the Examples section.

CT-26 colon carcinoma [2] = assay: LEF with chemotherapy (LEFCT-EC) in mice bearing 5 mm CT-26 tumors; format: in vivo, BALB/C mice
Experimental: Mice: BALB/C male mice were obtained from the breeding colony of Tel-Aviv University, Israel. Mice were used at 8-12 weeks of age. Animal care and experimentation were performed in accordance with the Tel-Aviv University guidelines.
Tumor: Colon carcinoma tumors were grown in mice with CT-26, a metastatic colon carcinoma cell line induced in a BALB/c mouse by chemical carcinogenesis. Cells were cultured in Dulbecco's modified Eagle's medium (DMEM) supplemented with 100 U/ml penicillin, 100 μg/ml streptomycin, 2 mM L-glutamine; 1 mM sodium pyruvate; 1% non-essential amino acid solution; 10% heat-inactivated fetal calf serum. Cultures were maintained at 37° C. in a humidified incubator with a 5% CO2 atmosphere.
Tumor cell inoculation: Mice were inoculated intracutaneously with 10^5 CT-26 cells suspended in 100 μL PBS into the low lateral side of the back. Local tumor growth was determined by measuring three mutually orthogonal tumor diameters with a caliper. The volume of tumor was calculated using the formula: Vol=D1×D2×D3×π/6, where D1, D2, D3 are three mutually orthogonal tumor diameters.
(§1) Low-strength electric field stimulation: To subject tumors to LEFs, stainless steel needles were used as electrodes. Tumors 5 mm in diameter (about 65 mm^3) were transfixed by electrode needles, with one cathode in the center of the tumor and three or four peripheral anodes. The electrodes were connected to an electric pulse generator and to an oscilloscope. Pulsed LEFs with a repetition frequency of 500 Hz and a pulse width of 180 μs were applied at 20, 40, 60 and 70 V/cm for a duration 12 min or 20 min. The electric pulses were administered 2-4 min following chemotherapeutic drug administration. Mice were anesthetized 10 min before the procedure.
(§2) Chemotherapeutic agents: Bleomycin (Sigma Israel Chemicals Ltd., Israel; Megapharm Ltd., Israel) was kept at a temperature of 2-8° C., and was dissolved in pyrogen-free PBS to a concentration enabling dosages of 50 U/kg body weight prior to use. BCNU was administered at a dosage of 35 mg/kg body weight, and 5-FU (Abic, Israel) was used at a dose of 100 mg/kg body weight.
Anesthesia: Mice were anesthetized using an anesthetic cocktail comprising a dose of imalgen at 100 mg/kg body weight and xylazine hydrochloride at 6.25 mg/kg body weight dissolved in PBS injected intraperitoneally in a volume of 0.25 ml per mouse 10 min prior to LEF treatment.
Statistical analysis: Survival times (Kaplan-Meir test), survival comparisons between groups (Mantel-Cox test), and tumor volume differences between groups were plotted using StatSoft “Statistica” statistical software.
Effect of LEF duration and strength on potentiation of bleomycin for treatment of colon carcinoma: In order to determine the optimal LEFCT-EC/bleomycin therapy for treatment of colon cancer, mice bearing CT-26 tumors were treated with LEFs of 40 V/cm for 12 min, and 20 V/cm for 12 or 20 min with or without administration of bleomycin, and survival was analyzed.

CT-26 colon carcinoma [3] = system: CT-26 colon carcinoma
CT-26 colon carcinoma [4] = assay: LEFCT-EC with BCNU in mice bearing large (10 or 15 mm) CT-26 tumors; format: in vivo, BALB/C mice; details: for time after which all mice were dead: BCNU 35 mg/kg only; for cure rate: LEF 40 V/cm 12 min + BCNU 35 mg/kg
Experimental: as §1, §2
Effect of LEFCT-EC with BCNU on CT-26 development in mice bearing large tumors: In order to examine the effectiveness of LEFCT-EC with BCNU on tumor development in mice with a large tumor burden, mice bearing tumors of 10 mm (about 523 mm^3) or 15 mm in diameter (about 1,760 mm^3). These animals were treated with 4 electrodes placed 7 mm apart.

CT-26 colon carcinoma [5] = assay: CT-26 cells inoculated with splenocytes from mice cured by LEFCT-EC with BCNU; format: in vivo, BALB/C mice; details: donors cured by LEFCT-EC with BCNU; tumor cells to splenocytes 1:100
Description: Anti-tumor effect of splenocytes from tumor bearing mice cured by LEFCT-EC with BCNU: In order to examine whether development of resistance against challenge with CT-26 tumors in mice cured of such tumors via LEFCT-EC with BCNU is immunologically mediated, normal mice were inoculated with a dose of CT-26 tumor cells mixed with splenocytes from cured animals. […] Thus, curative LEFCT-EC+BCNU treatment of CT-26 tumor bearing mice induces immunological resistance to subsequent growth of such tumors in such mice.

B16-F10.9 melanoma [6] = assay: Rechallenge with B16-F10.9 cells of mice cured by LEFCT-EC; format: in vivo, C57BL/6 mice; details: mice cured by LEFCT-EC with the drug, challenged with 2×10^5 B16-F10.9 cells
Description: FIG. 17 is a data plot depicting the cumulative survival of mice previously bearing B16-F10.9 melanoma and cured by LEFCT-EC with cisplatin or taxol following challenge with B16-F10.9 melanoma cells. Mice cured by LEF-chemotherapy that survived for 120-180 days after initial tumor inoculation, were challenged with 2×10^5 B16-F10.9 cells subcutaneously.
Effect of curative LEFCT-EC treatment on generation of anti B16-F10.9 tumor resistance: The resistance of mice cured of B16-F10.9 melanoma by LEF-chemotherapy was analyzed by challenging such cured mice with a tumorigenic dose of B16-F 10.9 melanoma cells.

[7] = LEF-CT (drug + LEF), cisplatin 4 mg/kg, bleomycin 8 U/kg, 5-FU 150 mg/kg, taxol 20 mg/kg
[8] = intratumoral drug injection alone, same doses
[9] = chemotherapy alone, intratumoral, no LEF

## O=c1[nH]cc(F)c(=O)[nH]1 [5-FU, 5-fluorouracil]
B16-F10.9 melanoma [1]; [7]
  Tumor size (mean ± standard error): 143 ± 52 mm^3
B16-F10.9 melanoma [1]; [8]
  Tumor size (mean ± standard error): 460 ± 54 mm^3
CT-26 colon carcinoma [2]; 5-FU 100 mg/kg intratumoral or intravenous + LEF 40 V/cm 12 min
  time at which half of the mice were still alive: 80 days

## O=NN(CCCl)C(=O)NCCCl [BCNU]
CT-26 colon carcinoma [3]; after 18 days
  tumor volume of reinoculated mice relative to first-time inoculated mice: about one order of magnitude smaller
CT-26 colon carcinoma [3]; mice cured by LEFCT-EC with BCNU, challenged with 10^5 CT-26 cells
  day by which half of the cured and challenged mice were still alive: ~63 days
CT-26 colon carcinoma [4]; 10 mm tumors
  tumor size with LEFCT-EC + BCNU relative to BCNU alone: approximately an order of magnitude smaller
  time after which all mice were dead: 90 days
  cure rate: over 80%
CT-26 colon carcinoma [4]; 15 mm tumors
  time after which all mice were dead: 87 days
  cure rate: 100%
CT-26 colon carcinoma [4]; LEF with BCNU, 15 mm tumors, after 100 days
  survival: 100%
CT-26 colon carcinoma [4]; LEFCT-EC with BCNU, 15 mm tumors, after 42 days
  tumor detection: no tumors were detected
CT-26 colon carcinoma [5]
  tumor growth with splenocytes from cured mice: completely prevent growth of tumors
CT-26 colon carcinoma [2]; BCNU 35 mg/kg intratumoral + LEF 40 V/cm 12 min, after 52 days, unchanged until day 110
  survival rate: 83%
CT-26 colon carcinoma [2]; BCNU + LEF 40 V/cm, comparison with surgery, after about 60 days until about 120 days
  survival: 40%
CT-26 colon carcinoma [2]; LEFCT-EC: drug + LEF 40 V/cm 12 min, 5 mm tumors
  cure rate: 83%
CT-26 colon carcinoma [2]; after 21 days
  tumor size with drug only relative to drug + LEF: about triple the size
CT-26 colon carcinoma [2]; drug alone, no LEF, intratumoral injection (5-FU intratumoral or intravenous), 5 mm tumors
  time after which half the mice died: about 48 days

## N.N.[Cl-].[Cl-].[Pt+2] [cisplatin, cis-platinum (II) diamminedichloride]
B16-F10.9 melanoma [6]
  MST of challenged mice: 48.7 days
B16-F10.9 melanoma [1]; [7]
  Tumor size (mean ± standard error): 83 ± 57 mm^3
B16-F10.9 melanoma [1]; LEF-chemotherapy: intratumoral drug + LEF about 40 V/cm 12 min, 120 days (cisplatin) or 180 days (taxol, bleomycin) after inoculation
  mean survival time (MST): 51.1 days
B16-F10.9 melanoma [1]; LEF-chemotherapy, 120 days after tumor inoculation
  animals tumor free: 13.5%
B16-F10.9 melanoma [1]; [9]
  effect of drug alone on survival: no significant effect
  mean survival time (MST): 29.5 days
B16-F10.9 melanoma [1]; [8]
  Tumor size (mean ± standard error): 1684 ± 204 mm^3
B16-F10.9 melanoma [1]; pooled statement for cisplatin, taxol or bleomycin
  LEFCT-EC treated mice that died two months and later after treatment with pulmonary metastatic foci, free of primary tumor: About 10%

Source: patent US7395112B2, “Method and apparatus for treating tumors using low strength electric fields” (priority 2002, dated 2008)
